According to US20100056620A1, “ACTIVE COMPOUND COMBINATIONS WITH INSECTICIDAL AND ACARICIDAL PROPERTIES” (Bayer CropScience AG, priority 2006, published 2010):

Experiments:
Type in all cases: in vivo
[1] = system: red spider Panonychus ulmi (PANOUL); assay: Example A: apple tree field test against red spider, count of adult spider mites on 25 leaves; details: etoxazole 0.05%, I-1-b 0.04%; for PANOUL (number of adult spider mites on 25 leaves): apple 'Braeburn'; for Prey/Predator ratio: PANOUL/AMBLAN
Description: (§1) In 4 replications, in each case five about 10-year-old apple trees (crown height about 2.5 m) of the cultivar “Braeburn” are treated against the red spider Panonychus ulmi (PANOUL). Here, the active compound (I-b-1) (240SC) and the commercial standard etoxazole (110 SC) are applied at the stated application rates in the presence of the predatory mite Amblyseius andersoni (AMBLAN) using a pressure-operated knapsack spray. The water application rate is 400 l/ha. Two applications are carried out at an interval of 42 days.
(§2) Evaluation is carried out 4 days prior to and 6, 29, 43 and 63 days after the 1st treatment by counting the number of adult spider mites and predatory mites on 25 leaves and establishing a prey/predator ratio as a measure for the supporting action of the beneficial species.

[2] = system: predatory mite Amblyseius andersoni (AMBLAN); assay: Example A: apple tree field test, count of predatory mites on 25 leaves; details: apple 'Braeburn', etoxazole 0.05%, I-1-b 0.04%
Description: as §1, §2

[3] = system: fruit tree spider mite (Panonychus ulmi); assay: Example B: Panonychus ulmi test on plum cuttings, with or without added predatory mites; details: 20 ppm, active compound alone, spray
Description: The expected activity for a given combination of two active compounds can be calculated (cf. Colby, S. R.; “Calculating Synergistic and Antagonistic Responses of Herbicide Combinations”, Weeds 15, pages 20-22, 1967) as follows:
If • X is the kill rate, expressed in % of the untreated control, when employing active compound A at an application rate of in ppm or g/ha, • Y is the kill rate, expressed in % of the untreated control, when employing active compound B at an application rate of n ppm or g/ha, • E is the kill rate, expressed in % of the untreated control, when employing active compounds A and B at application rates of m and n ppm or g/ha, • then
If the actual insecticidal kill rate is higher than the calculated one, the kill rates of the combination are superadditive, i.e. a synergistic effect is present. In this case, the kill rate that is actually observed has to be higher than the value, calculated using the formula above, for the expected kill rate (E).
To produce a suitable preparation of active compound, 1 part by weight of active compound is mixed with the stated amounts of solvent and emulsifier, and the concentrate is diluted with emulsifier-containing water to the desired concentration. […]
After the desired period of time, the kill of the pest in % is determined. […] The determined kill ratios are entered into Colby's formula.

[4] = 6 d after 1st treatment, AMBLAN present
[5] = 29 d after 1st treatment, AMBLAN present
[6] = 43 d after 1st treatment, two applications 42 days apart
[7] = 63 d after 1st treatment, two applications 42 days apart
[8] = −4 d (4 days prior to 1st treatment)
[9] = −4 d (4 days prior to 1st treatment), AMBLAN present

CCC(C)(C)C(=O)OC1=C(c2ccc(Cl)cc2Cl)C(=O)OC12CCCCC2 [I-b-1, spirodiclofen]
PANOUL (number of adult spider mites on 25 leaves) [1, 4]: 13 | PANOUL (number of adult spider mites on 25 leaves) [1, 5]: 111 | PANOUL (number of adult spider mites on 25 leaves) [1, 6]: 52 | PANOUL (number of adult spider mites on 25 leaves) [1, 7]: 0 | Prey/Predator ratio ([1]; 6 d after 1st treatment): 4.3 | Prey/Predator ratio ([1]; 29 d after 1st treatment): 1.9 | Prey/Predator ratio ([1]; 43 d after 1st treatment): 0.5 | Prey/Predator ratio ([1]; 63 d after 1st treatment): 0.00 | Prey/Predator ratio [1, 8]: 18 | PANOUL (number of adult spider mites on 25 leaves) [1, 9]: 36 | AMBLAN (number of predatory mites on 25 leaves) ([2]; 6 d after 1st treatment): 3 | AMBLAN (number of predatory mites on 25 leaves) ([2]; 29 d after 1st treatment): 57 | AMBLAN (number of predatory mites on 25 leaves) [2, 6]: 100 | AMBLAN (number of predatory mites on 25 leaves) [2, 7]: 62 | AMBLAN (number of predatory mites on 25 leaves) [2, 8]: 2 | Kill in % after 7 d [3]: 70%

CCOc1cc(C(C)(C)C)ccc1C1COC(c2c(F)cccc2F)=N1 (stereo not shown) [etoxazole, reference compound]
PANOUL (number of adult spider mites on 25 leaves) [1, 4]: 10 | PANOUL (number of adult spider mites on 25 leaves) [1, 5]: 221 | PANOUL (number of adult spider mites on 25 leaves) [1, 6]: 203 | PANOUL (number of adult spider mites on 25 leaves) [1, 7]: 87 | Prey/Predator ratio ([1]; 6 d after 1st treatment): 2.0 | Prey/Predator ratio ([1]; 29 d after 1st treatment): 12.3 | Prey/Predator ratio ([1]; 43 d after 1st treatment): 3.9 | Prey/Predator ratio ([1]; 63 d after 1st treatment): 1.01 | Prey/Predator ratio [1, 8]: 25 | PANOUL (number of adult spider mites on 25 leaves) [1, 9]: 25 | AMBLAN (number of predatory mites on 25 leaves) ([2]; 6 d after 1st treatment): 5 | AMBLAN (number of predatory mites on 25 leaves) ([2]; 29 d after 1st treatment): 18 | AMBLAN (number of predatory mites on 25 leaves) [2, 6]: 52 | AMBLAN (number of predatory mites on 25 leaves) [2, 7]: 86 | AMBLAN (number of predatory mites on 25 leaves) [2, 8]: 1
